# Test results reported in patent US12060347B2 (BRISTOL-MYERS SQUIBB COMPANY, priority 2016, dated 2024).
# Target: T1, human PAR4 (Homo sapiens, UniProt Q96RI0)
# T1 construct: expressed in transfected cells; host or cells: HEK293 PAR4 Clone 1.2A (BMS Arctic ID 383940)
# T1 sequence (Q96RI0 18-385): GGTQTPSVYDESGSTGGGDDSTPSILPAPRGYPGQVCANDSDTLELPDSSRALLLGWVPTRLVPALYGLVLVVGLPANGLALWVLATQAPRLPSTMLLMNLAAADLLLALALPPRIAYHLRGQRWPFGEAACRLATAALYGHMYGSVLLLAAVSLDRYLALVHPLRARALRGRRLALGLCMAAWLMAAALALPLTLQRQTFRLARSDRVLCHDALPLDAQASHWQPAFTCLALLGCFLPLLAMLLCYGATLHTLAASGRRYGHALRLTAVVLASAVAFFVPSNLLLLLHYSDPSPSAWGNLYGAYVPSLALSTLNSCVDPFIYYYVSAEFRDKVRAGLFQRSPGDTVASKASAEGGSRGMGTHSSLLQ
# Experiment: PAR4 FLIPR assay: antagonism of agonist-peptide-induced calcium mobilization in PAR4-expressing HEK293 cells
# Assay type: cell-based
# Conditions: H-Ala-Phe(4-F)-[…]NH2-induced intracellular calcium mobilization, 11-point curves
row,Compound,IC50 [nM]
1,"COc1cnc2c(-c3nc4c(Cl)c(F)c(OC[C@@H](C)OC(=O)Nc5ccc(C(F)(F)F)nc5)cc4s3)cc(C)cc2n1 [Example 374, (R)-1-((4-chloro-5-fluoro-2-(2-methoxy-7-methylquinoxalin-5-yl)benzo[d]thiazol-6-yl)oxy)propan-2-yl (6-(trifluoromethyl)pyridin-3-yl)carbamate]",110
2,"COc1cnc2c(-c3nc4c(Cl)c(F)c(OC[C@@H](C)OC(=O)Nc5cnc6c(c5)CC=N6)cc4s3)cc(C)cc2n1 [Example 375, (R)-1-((4-chloro-5-fluoro-2-(2-methoxy-7-methylquinoxalin-5-yl)benzo[d]thiazol-6-yl)oxy)propan-2-yl 3H-pyrrolo [2,3-b]pyridin-5-yl carbamate]",1.7
3,"COc1cnc2c(-c3nc4c(Cl)c(F)c(OC[C@@H](C)OC(=O)Nc5cnccc5C)cc4s3)cc(C)cc2n1 [Example 376, (R)-1-((4-chloro-5-fluoro-2-(2-methoxy-7-methylquinoxalin-5-yl)benzo[d]thiazol-6-yl)oxy)propan-2-yl (4-methylpyridin-3-yl) carbamate]",72
4,"COc1cnc2c(-c3nc4c(Cl)c(F)c(OC[C@@H](C)OC(=O)Nc5ccc(C)nc5)cc4s3)cc(C)cc2n1 [Example 377, (R)-1-((4-chloro-5-fluoro-2-(2-methoxy-7-methylquinoxalin-5-yl)benzo[d]thiazol-6-yl)oxy)propan-2-yl (6-methylpyridin-3-yl)carbamate]",4.3
5,"COC(=O)c1cc(NC(=O)OCCOc2cc3sc(-c4cc(C)cc5nc(OC)cnc45)nc3c(Cl)c2F)cn1C [Example 378, methyl 4-(((2-((4-chloro-5-fluoro-2-(2-methoxy-7-methylquinoxalin-5-yl)benzo[d]thiazol-6-yl)oxy)ethoxy)carbonyl)amino)-1-methyl-1H-pyrrole-2-carboxylate]",8.7
6,"COc1cnc2c(-c3nc4cc(F)c(OCC(COCC(C)C)OC(=O)Nc5cccnc5)cc4s3)cc(C)cc2n1 (centres unmarked) [Example 379, 1-((5-fluoro-2-(2-methoxy-7-methylquinoxalin-5-yl)benzo[d]thiazol-6-yl)oxy)-3-isobutoxypropan-2-yl pyridin-3-ylcarbamate]",1.7
7,"COc1cnc2c(-c3nc4cc(F)c(OCC(COCc5ccccc5)OC(=O)Nc5cccnc5)cc4s3)cc(C)cc2n1 (centres unmarked) [Example 380, 1-(benzyloxy)-3-((5-fluoro-2-(2-methoxy-7-methylquinoxalin-5-yl)benzo[d]thiazol-6-yl)oxy)propan-2-yl pyridin-3-ylcarbamate]",2.3
8,"COc1cnc2c(-c3nc4c(Cl)c(F)c(OCCOC(=O)Nc5csc(Cl)n5)cc4s3)cc(C)cc2n1 [Example 383, 2-((4-chloro-5-fluoro-2-(2-methoxy-7-methylquinoxalin-5-yl)benzo[d]thiazol-6-yl)oxy)ethyl (2-chlorothiazol-4-yl)carbamate]",590
9,"COc1cnc2c(-c3nc4c(Cl)c(F)c(OCCOC(=O)Nc5cncs5)cc4s3)cc(C)cc2n1 [Example 384, 2-((4-chloro-5-fluoro-2-(2-methoxy-7-methylquinoxalin-5-yl)benzo[d]thiazol-6-yl)oxy)ethyl thiazol-5-ylcarbamate]",18
10,"COc1cnc2c(-c3nc4c(Cl)c(F)c(OC[C@@H](C)OC(=O)Nc5ccc(CO)nc5)cc4s3)cc(C)cc2n1 [Example 385, (R)-1-((4-chloro-5-fluoro-2-(2-methoxy-7-methylquinoxalin-5-yl)benzo[d]thiazol-6-yl)oxy)propan-2-yl (6-(hydroxymethyl)pyridin-3-yl)carbamate]",2.3
11,"COc1cnc2c(-c3nc4cc(F)c(O[C@@H](C)[C@@H](C)OC(=O)Nc5cnc(C)nc5)cc4s3)cc(C)cc2n1 [Example 386, (2R,3S)-3-((5-fluoro-2-(2-methoxy-7-methylquinoxalin-5-yl)benzo[d]thiazol-6-yl)oxy)butan-2-yl (2-methylpyrimidin-5-yl)carbamate]",7.8
